{
  "source": "patent US20070060558A1",
  "about": "(PALUMED S.A., priority 2004, published 2007)",
  "key": {"[1]": {"tested_on": "Staphylococcus aureus MSSA CIP 4.83", "assay": "Antibacterial activity (MIC/MBC)", "format": "cell-based", "conditions": "S. aureus MSSA CIP 4.83; for MBC: read-out: MBC"}, "[2]": {"tested_on": "S. pneumoniae PRSP CIP 104471", "assay": "Antibacterial activity (MIC/MBC)", "format": "cell-based, Streptococcus pneumoniae"}, "[3]": {"tested_on": "S. pneumoniae PRSP clinical isolate", "assay": "Antibacterial activity (MIC/MBC)", "format": "cell-based, Streptococcus pneumoniae"}, "[4]": {"tested_on": "E. faecalis VRE CIP 104676", "assay": "Antibacterial activity (MIC/MBC)", "format": "cell-based, Enterococcus faecalis", "conditions": "E. faecalis VRE CIP 104676"}, "[5]": {"tested_on": "H. influenzae CIP 102514", "assay": "Antibacterial activity (MIC/MBC)", "format": "cell-based, Haemophilus influenzae"}, "[6]": {"assay": "Stability in solution at pH 7 (HPLC purity over time)", "format": "physicochemical", "conditions": "pH 7, 37° C.", "protocol": "The stability of the aminoquinoline-cephalosporin_hybrid molecules given as examples was determined in solution at 37° C., at physiological pH (pH 7, phosphate buffer/acetonitrile, 75/25 v/v) and at acidic pH (pH 1, 0.1 M HCl/ethanol, 70/30 v/v) by high pressure liquid chromatography coupled to a UV-visible detector (Beckman Coulter ODS C18 column, 5 μm, 4.6×250 mm; eluents: A: 0.1% TFA, B: CH3CN/H2O 90/10 0.1% TFA, gradient: from 10% to 100% of B in 30 minutes, and then 100% of B for 10 minutes, flow rate 1 mL/minutes, λ=254 nm, volume injected: 10 μL)."}, "[7]": {"conditions": "Staphylococcus aureus, read-out: MIC"}, "[8]": {"conditions": "Streptococcus pneumoniae, read-out: MIC"}, "[9]": {"conditions": "Streptococcus pneumoniae, PRSP, read-out: MIC"}, "[10]": {"conditions": "Enterococcus faecalis, read-out: MIC"}, "[11]": {"conditions": "Haemophilus influenzae, CIP102514"}},
  "note": "Like-named read-outs stand apart in the source and are kept apart here.",
  "data": [
    {"smiles": "CC(=O)OCC1=C(C(=O)O)N2C(=O)[C@@H](N)[C@H]2SC1", "note": "[7-ACA, 7-aminocephalosporanic acid, reference compound]", "values": [
      {"measurement": "MIC", "setting": "[1]", "value": 50, "unit": "µg/mL"},
      {"measurement": "MIC", "setting": "[2]", "value": 50, "unit": "µg/mL"},
      {"measurement": "MIC", "setting": "[3]", "value": 50, "unit": "µg/mL"},
      {"measurement": "MIC", "setting": "[4]", "value": ">50", "unit": "µg/mL"},
      {"measurement": "MIC", "setting": "[5]; H. influenzae CIP 102514", "value": 50, "unit": "µg/mL"}
    ]},
    {"smiles": "CC(C)(C)C(=O)OCOC(=O)[C@@H]1N2C(=O)[C@@H](NC(=O)C3CCN(c4ccnc5cc(Cl)ccc45)CC3)[C@H]2SC1(C)C", "note": "[PA 1007, (2S,5R,6R)-6-{[1-(7-Chloroquinolin-4-yl)-piperidine-4-carbonyl]-amino}-3,3-dimethyl-7-oxo-4-thia-1-aza-bicyclo[3.2.0]heptane-2-carboxylic acid 2,2-dimethyl-propionyloxymethyl ester]", "values": [
      {"measurement": "MBC", "setting": "[1]; Staphylococcus aureus", "value": 0.49, "unit": "µg/mL"},
      {"measurement": "MIC", "setting": "[1]; [7]", "value": 0.012, "unit": "µg/mL"}
    ]},
    {"smiles": "CC(=O)OCC1=C(C(=O)O)N2C(=O)[C@@H](NC(=O)CCNc3ccnc4cc(Cl)ccc34)[C@H]2SC1", "note": "[PA 1037]", "values": [
      {"measurement": "MBC", "setting": "[1]; Staphylococcus aureus", "value": "> 50", "unit": "µg/mL"},
      {"measurement": "MIC", "setting": "[1]; [7]", "value": 0.39, "unit": "µg/mL"},
      {"measurement": "MBC", "setting": "[2]; Streptococcus pneumoniae", "value": 3.12, "unit": "µg/mL"},
      {"measurement": "MIC", "setting": "[2]; [8]", "value": 1.56, "unit": "µg/mL"},
      {"measurement": "MBC", "setting": "[3]; Streptococcus pneumoniae", "value": 6.25, "unit": "µg/mL"},
      {"measurement": "MIC", "setting": "[3]; [9]", "value": 3.12, "unit": "µg/mL"},
      {"measurement": "MBC", "setting": "[4]; Enterococcus faecalis", "value": 25, "unit": "µg/mL"},
      {"measurement": "MIC", "setting": "[4]; [10]", "value": 6.25, "unit": "µg/mL"},
      {"measurement": "MBC", "setting": "[5]; [11]", "value": 25, "unit": "µg/mL"},
      {"measurement": "MIC", "setting": "[5]; [11]", "value": 6.25, "unit": "µg/mL"}
    ]},
    {"smiles": "CC(=O)OCC1=C(C(=O)O)N2C(=O)[C@@H](NC(=O)CCCNc3ccnc4cc(Cl)ccc34)[C@H]2SC1", "note": "[PA 1053, (6R,7R-3-Acetoxymethyl-7-[4-7-chloroquinolin-4-ylamino)-butyrylamino]-8-oxo-5-thia-1-aza-bicyclo[4.2.0]oct-2-ene-2-carboxylic acid]", "values": [
      {"measurement": "MBC", "setting": "[1]; Staphylococcus aureus", "value": "> 50", "unit": "µg/mL"},
      {"measurement": "MIC", "setting": "[1]; [7]", "value": 0.78, "unit": "µg/mL"},
      {"measurement": "MBC", "setting": "[2]; Streptococcus pneumoniae", "value": 3.12, "unit": "µg/mL"},
      {"measurement": "MIC", "setting": "[2]; [8]", "value": 1.56, "unit": "µg/mL"},
      {"measurement": "MBC", "setting": "[3]; Streptococcus pneumoniae", "value": 6.25, "unit": "µg/mL"},
      {"measurement": "MIC", "setting": "[3]; [9]", "value": 3.12, "unit": "µg/mL"},
      {"measurement": "MBC", "setting": "[4]; Enterococcus faecalis", "value": "> 50", "unit": "µg/mL"},
      {"measurement": "MIC", "setting": "[4]; [10]", "value": 25, "unit": "µg/mL"},
      {"measurement": "MBC", "setting": "[5]; [11]", "value": 25, "unit": "µg/mL"},
      {"measurement": "MIC", "setting": "[5]; [11]", "value": 6.25, "unit": "µg/mL"}
    ]},
    {"smiles": "CC(=O)OCC1=C(C(=O)O)N2C(=O)[C@@H](NC(=O)C3CCN(c4ccnc5cc(Cl)ccc45)CC3)[C@H]2SC1.Cl", "note": "[PA 1074]", "values": [
      {"measurement": "Purity of the hybrid molecules (as a percentage) as a function of time (hours)", "setting": "[6]; time 0 h", "value": 100, "unit": "%"},
      {"measurement": "Purity of the hybrid molecules (as a percentage) as a function of time (hours)", "setting": "[6]; time 1 h", "value": 100, "unit": "%"},
      {"measurement": "Purity of the hybrid molecules (as a percentage) as a function of time (hours)", "setting": "[6]; time 2 h", "value": 100, "unit": "%"},
      {"measurement": "Purity of the hybrid molecules (as a percentage) as a function of time (hours)", "setting": "[6]; time 4 h", "value": 100, "unit": "%"},
      {"measurement": "Purity of the hybrid molecules (as a percentage) as a function of time (hours)", "setting": "[6]; time 6 h", "value": 100, "unit": "%"},
      {"measurement": "Purity of the hybrid molecules (as a percentage) as a function of time (hours)", "setting": "[6]; time 8 h", "value": 97, "unit": "%"},
      {"measurement": "Purity of the hybrid molecules (as a percentage) as a function of time (hours)", "setting": "[6]; time 15 h", "value": 88, "unit": "%"},
      {"measurement": "Purity of the hybrid molecules (as a percentage) as a function of time (hours)", "setting": "[6]; time 24 h", "value": 87, "unit": "%"},
      {"measurement": "MBC", "setting": "[1]; Staphylococcus aureus", "value": 1.56, "unit": "µg/mL"},
      {"measurement": "MIC", "setting": "[1]; [7]", "value": 0.78, "unit": "µg/mL"},
      {"measurement": "MBC", "setting": "[2]; Streptococcus pneumoniae", "value": 50, "unit": "µg/mL"},
      {"measurement": "MIC", "setting": "[2]; [8]", "value": 25, "unit": "µg/mL"},
      {"measurement": "MBC", "setting": "[3]; Streptococcus pneumoniae", "value": 50, "unit": "µg/mL"},
      {"measurement": "MIC", "setting": "[3]; [9]", "value": 25, "unit": "µg/mL"},
      {"measurement": "MBC", "setting": "[4]; Enterococcus faecalis", "value": "> 50", "unit": "µg/mL"},
      {"measurement": "MIC", "setting": "[4]; [10]", "value": 50, "unit": "µg/mL"},
      {"measurement": "MBC", "setting": "[5]; Haemophilus influenzae, CIP102514, H. influenzae CIP 102514, read-out: MBC", "value": "> 50", "unit": "µg/mL"},
      {"measurement": "MIC", "setting": "[5]; Haemophilus influenzae, CIP102514, H. influenzae CIP 102514, read-out: MIC", "value": 50, "unit": "µg/mL"}
    ]},
    {"smiles": "CC(=O)OCC1=C(C(=O)O)N2C(=O)[C@@H](NC(=O)CNc3ccnc4cc(Cl)ccc34)[C@H]2[S+]([O-])C1.Cl", "note": "(stereo partly drawn) [PA 1088, (6R,7R-3-Acetoxymethyl-7-[2-7-chloroquinolin-4-ylamino)acetylamino]-5,8-dioxo-5λ^4-thia-1-aza-bicyclo[4.2.0]oct-2-ene-2-carboxylic acid hydrochloride]", "values": [
      {"measurement": "Purity of the hybrid molecules (as a percentage) as a function of time (hours)", "setting": "[6]; time 0 h", "value": 100, "unit": "%"},
      {"measurement": "Purity of the hybrid molecules (as a percentage) as a function of time (hours)", "setting": "[6]; time 1 h", "value": 100, "unit": "%"},
      {"measurement": "Purity of the hybrid molecules (as a percentage) as a function of time (hours)", "setting": "[6]; time 2 h", "value": 100, "unit": "%"},
      {"measurement": "Purity of the hybrid molecules (as a percentage) as a function of time (hours)", "setting": "[6]; time 4 h", "value": 100, "unit": "%"},
      {"measurement": "Purity of the hybrid molecules (as a percentage) as a function of time (hours)", "setting": "[6]; time 24 h", "value": 81, "unit": "%"}
    ]}
  ]
}
